Experimental findings from patent EP2644601A1, “Compounds with matrix-metalloproteinase inhibitory activity and imaging agents thereof” (Westfälische Wilhelms-Universität Münster, priority 2012, dated 2013) are described below.

The structures appear in SMILES notation.

Usually inhibition stands for the relative decrease from the control value, in per cent.

Common to all, as to assay type: biochemical
For one test, the target named is MMP13 (Homo sapiens, UniProt P45452). Briefly: MMP compound screening with Fluorimetric SensoLyte 390 Generic MMP Activity Kit, recombinant MMP-13. The protocol: (§1) The activities were determined using Fluorimetric SensoLyte® 390 Generic MMP Activity Kit from Anaspec (cat # 72202). This assay kit can detect the activity of several MMPs such as MMP-1, 2, 7, 8, 9, 13, 14,15,16 and 24.
(§2) For screening MMP compounds, activated 2 nM of recombinant MMP-2, 8, 9 or 13 are pre-incubated with MMP compound (inhibitor) for 30 min at 37°C. The substrate is added and the inhibition of MMP activity is expressed as % of total activity (without the inhibitor incubation).

A further test has as its target T1, MMP-2 (Homo sapiens, UniProt P08253).
T1 sequence (P08253 110-660): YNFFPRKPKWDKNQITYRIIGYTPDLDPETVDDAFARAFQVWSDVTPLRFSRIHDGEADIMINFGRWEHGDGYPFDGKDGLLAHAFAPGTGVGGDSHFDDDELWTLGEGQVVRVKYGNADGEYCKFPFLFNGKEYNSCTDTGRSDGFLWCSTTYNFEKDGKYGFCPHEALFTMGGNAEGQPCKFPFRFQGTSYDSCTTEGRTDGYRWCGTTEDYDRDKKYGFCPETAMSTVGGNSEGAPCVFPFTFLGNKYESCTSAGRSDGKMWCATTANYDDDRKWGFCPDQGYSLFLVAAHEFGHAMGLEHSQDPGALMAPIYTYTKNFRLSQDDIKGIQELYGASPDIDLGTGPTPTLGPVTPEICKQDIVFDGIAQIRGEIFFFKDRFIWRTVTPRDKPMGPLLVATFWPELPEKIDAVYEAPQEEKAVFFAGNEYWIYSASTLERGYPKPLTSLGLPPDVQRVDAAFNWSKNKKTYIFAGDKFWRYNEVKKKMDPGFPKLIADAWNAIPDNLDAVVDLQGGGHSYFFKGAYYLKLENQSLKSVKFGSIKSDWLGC
Briefly: MMP compound screening with Fluorimetric SensoLyte 390 Generic MMP Activity Kit, recombinant MMP-2. The procedure: as §1, §2

In another test the target is MMP-8 (Homo sapiens, UniProt P22894). Briefly: MMP compound screening with Fluorimetric SensoLyte 390 Generic MMP Activity Kit, recombinant MMP-8. The procedure:
as §1, §2

A further test has as its target MMP-9 (Homo sapiens, UniProt P14780). Briefly: MMP compound screening with Fluorimetric SensoLyte 390 Generic MMP Activity Kit, recombinant MMP-9. The protocol:
as §1, §2

Chain of MMP-8 (P22894 101-467, species assumed): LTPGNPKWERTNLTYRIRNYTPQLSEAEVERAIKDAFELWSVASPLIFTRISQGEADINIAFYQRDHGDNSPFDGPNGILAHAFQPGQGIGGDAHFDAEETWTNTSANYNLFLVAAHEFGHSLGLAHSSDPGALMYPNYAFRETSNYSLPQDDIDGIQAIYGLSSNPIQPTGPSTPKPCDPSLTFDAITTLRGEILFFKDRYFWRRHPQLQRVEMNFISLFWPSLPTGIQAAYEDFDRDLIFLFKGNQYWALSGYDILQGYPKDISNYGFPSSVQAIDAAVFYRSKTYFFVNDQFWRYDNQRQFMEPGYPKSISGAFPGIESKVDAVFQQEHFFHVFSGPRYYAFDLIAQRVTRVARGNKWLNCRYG
Chain of MMP-9 (P14780 107-707 limits assumed, species assumed): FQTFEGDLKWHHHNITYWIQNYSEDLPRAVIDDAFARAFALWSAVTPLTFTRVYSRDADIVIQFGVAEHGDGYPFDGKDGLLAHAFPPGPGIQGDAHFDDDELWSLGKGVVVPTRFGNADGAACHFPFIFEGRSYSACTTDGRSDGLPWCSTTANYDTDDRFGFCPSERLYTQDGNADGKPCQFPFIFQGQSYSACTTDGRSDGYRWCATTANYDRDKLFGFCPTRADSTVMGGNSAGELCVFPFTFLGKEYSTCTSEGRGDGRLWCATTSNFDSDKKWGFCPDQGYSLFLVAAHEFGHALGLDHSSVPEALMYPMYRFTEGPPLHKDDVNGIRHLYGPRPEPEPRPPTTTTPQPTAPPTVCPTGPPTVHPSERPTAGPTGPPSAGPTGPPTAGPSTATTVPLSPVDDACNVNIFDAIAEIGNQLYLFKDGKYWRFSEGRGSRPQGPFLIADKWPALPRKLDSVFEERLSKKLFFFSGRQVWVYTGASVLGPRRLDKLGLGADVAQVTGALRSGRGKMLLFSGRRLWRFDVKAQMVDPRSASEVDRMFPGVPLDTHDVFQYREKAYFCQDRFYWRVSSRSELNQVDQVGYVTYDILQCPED

For the compound `CCN1/C(=C/C=C/C=C/C2=[N+](CCCCCC(N)=O)c3ccc4c(S(=O)(=O)O)cc(S(=O)(=O)O)cc4c3C2(C)C)C(C)(C)c2c1ccc1c(S(=O)(=O)[O-])cc(S(=O)(=O)O)cc21` [Cy5.5], the inhibition at 0.1 µM on MMP13 (0.1uM) turned out to be 0%; at MMP-2 (0.1uM) it was 0%; on MMP-8 (0.1uM), 0%; at MMP-9 (0.1uM), 12%. Moreover, the inhibition at 1 µM turned out to be 7% at MMP13 (1uM), 0% at MMP-2 (1uM), 1% at MMP-8 (1uM) and 17% at MMP-9 (1uM).
